What all share (type): functional
The test system of experiment [1] is HCT-15. The experiment is described as follows: Antiproliferative activity against human HCT15 cells by SRB assay.
For experiment [2], the system named is NCI-H23. Kind of experiment: Antiproliferative activity against human NCI-H23 cells by SRB assay.
Experiment [3] concerns LOX IMVI. Kind of experiment: Antiproliferative activity against human LOX-IMVI cells by SRB assay.
Experiment [4] has as its system PC-3. Kind of experiment: Antiproliferative activity against human PC3 cells by SRB assay.
Experiment [5] has as its system ACHN. Kind of experiment: Antiproliferative activity against human ACHN cells by SRB assay.
In experiment [6] the test system is MDA-MB-231. The experiment is described as follows: Antiproliferative activity against human MDA-MB-231 cells by SRB assay.

Active and inactive are the calls of the source. The rule behind the calls is not given here.

Turning to `O=C(CCC1=CCCN(Cc2ccccc2)C1=O)NO`, the 50% growth inhibitory concentration (GI50) in experiment [1] (Homo sapiens, HCT-15) is greater than 10 µM; in experiment [2] it was greater than 10 µM; in experiment [3], greater than 10 µM; in experiment [4] it was greater than 10 µM; in experiment [5] it was greater than 10 µM.

`COc1ccc(CN2CCC=C(CCC(=O)NO)C2=O)c(OC)c1` registered a concentration for 50% growth inhibition (GI50) in experiment [2] greater than 10 µM.

In the case of `C=CCN1CCC=C(CCC(=O)NO)C1=O`, in experiment [4], the GI50 result was “inactive”.

As to `O=C(CCC1=CCCN(CCc2ccccc2)C1=O)NO`, the 50% growth inhibitory concentration (GI50) in experiment [2] was greater than 10 µM.

Consider `O=C(CCCCCCC(=O)Nc1ccccc1)NO` [VORINOSTAT], for which the GI50 in experiment [6] came out at 0.66 µM; in experiment [1], 0.82 µM.

The values above are taken from ChEMBL document CHEMBL1146044, “Synthesis, enzymatic inhibition, and cancer cell growth inhibition of novel delta-lactam-based histone deacetylase (HDAC) inhibitors” (Bioorg Med Chem Lett, 2006).
